By IC50 is commonly meant the concentration needed to halve the response being measured. Read a high IC50 as weaker potency.

Molecules are shown by their SMILES.

The assay addresses human lung tryptase. Nature of the assay: β-Tryptase In-Vitro Enzyme Assay. The note with it: human lung tryptase 1 nM, substrate H-D-HHT-Ala-Arg-pNa 500 μM, pH 7.4, room temperature. In kind it is biochemical. As to the method:
The β-tryptase assay was conducted with human lung tryptase (Cortex Biochem #CP3033) in an aqueous buffer (10 mM Tris, 10 mM Hepes, 150 mM NaCl, 0.1% PEG 8000, pH 7.4) using the chromogenic substrate H-D-HHT-Ala-Arg-pNa. […] Percent inhibition was calculated by comparing the initial reaction velocity of samples without inhibitor to those with inhibitor. The initial reaction velocities were analyzed using Microsoft Excel.
The molecule `Cc1ccc2nc(C(=O)N3CCC4(CC3)COc3ccc(CN)cc34)cn2c1` [Cpd 119, 1-(6-methyl-imidazo[1,2-a]pyridin-2-yl)carbonyl-5′-aminomethyl-spiro[piperidine-4,3′-(2H)-benzo[b]furan]] yielded an IC50 of 1400 nM.

As for `Cc1ccc(C(=O)N2CCC3(CC2)COc2ccc(CN)cc23)cc1I` [Cpd 50, 1-(3-iodo-4-methyl-phenyl)carbonyl-5′-aminomethyl-spiro[piperidine-4,3′-(2H)-benzo[b]furan]], the IC50 is 36 nM.

Molecule `NCc1ccc2c(c1)C1(CCN(C(=O)Cc3ccc(Cl)cc3)CC1)CO2` [Cpd 91, 1-(4-chloro-benzyl)carbonyl-5′-aminomethyl-spiro[piperidine-4,3′-(2H)-benzo[b]furan]] registered an IC50 of 480 nM.

The molecule `NCc1ccc2c(c1)C1(CCN(C(=O)c3ccc(Cl)c(Cl)c3)CC1)CS2` [Cpd 353, 1-(3,4-dichlorophenyl)carbonyl-5′-aminomethyl-spiro[piperidine-4,3′-(2H)-benzo[b]thiophene]] had an IC50 of 37 nM.

`Cc1cccc(CCC(=O)N2CCC3(CC2)COc2ccc(CN)cc23)c1` [Cpd 98, 1-(3-methyl-phenethyl)carbonyl-5′-aminomethyl-spiro[piperidine-4,3′-(2H)-benzo[b]furan]] came in with an IC50 of 1700 nM.

`CCOCCOc1cccc(/C=C/C(=O)N2CCC3(CC2)COc2ccc(CN)cc23)c1` [Cpd 302, (E)-1-[3-(2-ethoxy-ethoxy)-phenylethenyl]carbonyl-5′-aminomethyl-spiro[piperidine-4,3′-(2H)-benzo[b]furan]] came in with an IC50 of 750 nM.

In turn, `NCc1ccc2c(c1)C1(CCN(C(=O)c3ccc(COc4ccc(F)cc4)o3)CC1)CO2` [Cpd 154, 1-[5-(4-fluoro-phenoxymethyl)-furan-2-yl]carbonyl-5′-aminomethyl-spiro[piperidine-4,3′-(2H)-benzo[b]furan]] showed an IC50 of 260 nM.

Molecule `COc1cccc(OCc2ccc(C(=O)N3CCC4(CC3)COc3ccc(CN)cc34)o2)c1` [Cpd 227, 1-[5-(3-methoxy-phenoxymethyl)-furan-2-yl]carbonyl-5′-aminomethyl-spiro[piperidine-4,3′-(2H)-benzo[b]furan]] came in with an IC50 of 44 nM.

The molecule `COCCCOc1cccc(/C=C/C(=O)N2CCC3(CC2)COc2ccc(CN)cc23)c1` [Cpd 301, (E)-1-[3-(3-methoxy-propoxy)-phenylethenyl]carbonyl-5′-aminomethyl-spiro[piperidine-4,3′-(2H)-benzo[b]furan]] returned an IC50 of 1500 nM.

The molecule `Cc1cc(C(=O)N2CCC3(CC2)COc2ccc(CN)cc23)sc1C(O)O` [Cpd 256, 1-(5-dihydroxymethyl-4-methyl-thien-2-yl)carbonyl-5′-aminomethyl-spiro[piperidine-4,3′-(2H)-benzo[b]furan]] registered an IC50 of 820 nM. This IC50 lies about 1.8-fold lower than the previous one.

As to `NCc1ccc2c(c1)C1(CCN(C(=O)c3ccc(Oc4cc(Cl)cc(Cl)c4)o3)CC1)CO2` [Cpd 149, 1-[5-(3,5-dichloro-phenoxy)-furan-2-yl]carbonyl-5′-aminomethyl-spiro[piperidine-4,3′-(2H)-benzo[b]furan]], the IC50 was found to be 110 nM.

On to `NCc1ccc2c(c1)C1(CCN(C(=O)Cc3cccc(Br)c3)CC1)CO2` [Cpd 87, 1-(3-bromo-benzyl)carbonyl-5′-aminomethyl-spiro[piperidine-4,3′-(2H)-benzo[b]furan]], for which half-maximal inhibition (IC50) was put at 1700 nM. This IC50 lies about 15-fold higher than the previous one.

With `NCc1ccc2c(c1)C1(CCN(C(=O)NCc3ccccc3)CC1)CO2` [Cpd 263, 1-benzylaminocarbonyl-5′-aminomethyl-spiro[piperidine-4,3′-(2H)-benzo[b]furan]], it took 5100 nM to reach half-maximal inhibition (IC50).

Take `NCc1ccc2c(c1)C1(CCN(C(=O)c3sc(SCc4ccccc4)c4c3CCC=C4)CC1)CO2` [Cpd 241, 1-(3-benzylthio-7-hydro-6H-benzo[c]thien-1-yl)carbonyl-5′-aminomethyl-spiro[piperidine-4,3′-(2H)-benzo[b]furan]]: the IC50 was 5.1 nM. Compared with the last molecule, the IC50 is about 1000-fold lower.

`CCOC(=O)CC(NNC)C(=O)N1CC2(CCN(C(=O)c3ccc(C#Cc4ccccc4)o3)CC2)c2cc(CN)ccc21` (centres unmarked) [Cpd 332, 1-(5-phenylethynyl-furan-2-yl)carbonyl-1′-[4-ethoxy-2-(methylamino)amino-1,4-dioxo-butyl]-5′-aminomethyl-spiro[piperidine-4,3′-(2H)-indole]] gave an IC50 of 28 nM.

Molecule `COc1ccc(CN2C(=O)c3ccc(CN)cc3C23CCN(C(=O)c2ccc(C#Cc4ccccc4)o2)CC3)c(OC)c1` [Cpd 316, 1-(5-phenylethynyl-furan-2-yl)carbonyl-1′-oxo-2′-(2,4-dimethoxy-benzyl)-5′-aminomethyl-spiro[piperidine-4,3′-1H-isoindole]] came in with an IC50 of 74 nM.

In the case of `NCc1ccc2c(c1)C1(CCN(C(=O)CCc3cccc(I)c3)CC1)CO2` [Cpd 97, 1-(3-iodo-phenethyl)carbonyl-5′-aminomethyl-spiro[piperidine-4,3′-(2H)-benzo[b]furan]], the half-inhibitory concentration (IC50) stood at 1500 nM. This IC50 is about 20-fold higher than that of the molecule before.

Turning to `NCc1ccc2c(c1)C1(CCN(C(=O)c3cccc(NS(=O)(=O)c4ccccc4)c3)CC1)CO2` [Cpd 18, 1-(3-phenylsulfonylamino-phenyl)carbonyl-5′-aminomethyl-spiro[piperidine-4,3′-(2H)-benzo[b]furan]], 3300 nM corresponded to half-maximal inhibition (IC50).

On to `NCc1ccc2c(c1)C1(CCN(C(=O)c3ccc(C#Cc4ccccc4)o3)CC1)CN2C(N)=O` [Cpd 325, 1-(5-phenylethynyl-furan-2-yl)carbonyl-1′-aminocarbonyl-5′-aminomethyl-spiro[piperidine-4,3′-(2H)-indole]], for which half-maximal inhibition (IC50) was put at 25 nM. This IC50 is about 130-fold lower than that of the molecule before.

Take `Cn1cc(C(=O)N2CCC3(CC2)COc2ccc(CN)cc23)c2ccccc21` [Cpd 237, 1-(1-methyl-indol-3-yl)carbonyl-5′-aminomethyl-spiro[piperidine-4,3′-(2H)-benzo[b]furan]]: the IC50 was 270 nM.

`NCc1ccc2c(c1)C1(CCN(C(=O)c3ccc(C#Cc4ccccc4F)o3)CC1)CO2` [Cpd 35, 1-[5-(2-fluoro-phenylethynyl)-furan-2-yl]carbonyl-5′-aminomethyl-spiro[piperidine-4,3′-(2H)-benzo[b]furan]] gave an IC50 of 4.3 nM.

In the case of `NCc1ccc2c(c1)C1(CCN(C(=O)c3ccc(CN4CCOCC4)o3)CC1)CO2` [Cpd 216, 1-(5-morpholin-4-ylmethyl-furan-2-yl)carbonyl-5′-aminomethyl-spiro[piperidine-4,3′-(2H)-benzo[b]furan]], the IC50 was found to be 1700 nM.

Molecule `NCc1ccc2c(c1)C1(CCN(C(=O)c3nc(-c4cccs4)no3)CC1)CO2` [Cpd 277, 1-(3-thien-2-yl-[1,2,4]oxadiazol-5-yl)carbonyl-5′-aminomethyl-spiro[piperidine-4,3′-(2H)-benzo[b]furan]] displayed a half-inhibitory concentration (IC50) of 6 nM.

`CS(=O)(=O)c1ccc(C(=O)N2CCC3(CC2)COc2ccc(CN)cc23)s1` [Cpd 169, 1-(5-methylsulfonyl-thien-2-yl)carbonyl-5′-aminomethyl-spiro[piperidine-4,3′-(2H)-benzo[b]furan]] showed an IC50 of 1600 nM.

Take `NCc1ccc2c(c1)C1(CCN(C(=O)c3cccc(C(N)=O)c3)CC1)CO2` [Cpd 273, 1-(3-aminocarbonyl-phenyl)carbonyl-5′-aminomethyl-spiro[piperidine-4,3′-(2H)-benzo[b]furan]]: the IC50 was determined as 1200 nM. This IC50 and that of the molecule before are within 1.5-fold of each other.

As to `NCc1ccc2c(c1)C1(CCN(C(=O)c3ccc(C=O)s3)CC1)CO2` [Cpd 245, 1-(5-formyl-thien-2-yl)carbonyl-5′-aminomethyl-spiro[piperidine-4,3′-(2H)-benzo[b]furan]], it took 510 nM to reach half-maximal inhibition (IC50).

Turning to `NCc1ccc2c(c1)C1(CCN(C(=O)/C=C/c3ccc(F)cc3)CC1)CO2` [Cpd 182, (E)-1-(4-fluoro-phenylethenyl)carbonyl-5′-aminomethyl-spiro[piperidine-4,3′-(2H)-benzo[b]furan]], half-maximal inhibition (IC50) was put at 740 nM.

The molecule `NCc1ccc2c(c1)C1(CCN(C(=O)c3ccc(-c4cc(Cl)ccc4Cl)o3)CC1)CO2` [Cpd 137, 1-[5-(2,5-dichloro-phenyl)-furan-2-yl]carbonyl-5′-aminomethyl-spiro[piperidine-4,3′-(2H)-benzo[b]furan]] registered an IC50 of 53 nM.

The molecule `NCc1ccc2c(c1)C1(CCN(C(=O)Cc3ccc(Br)cc3)CC1)CO2` [Cpd 93, 1-(4-bromo-benzyl)carbonyl-5′-aminomethyl-spiro[piperidine-4,3′-(2H)-benzo[b]furan]] showed an IC50 of 350 nM.

For `NCc1ccc2c(c1)C1(CCN(C(=O)C3CCCCC3)CC1)CO2` [Cpd 37, 1-cyclohexylcarbonyl-5′-aminomethyl-spiro[piperidine-4,3′-(2H)-benzo[b]furan]], the IC50 came out at 730 nM.

Take `COc1ccc(C(=O)N2CCC3(CC2)COc2ccc(CN)cc23)cc1OC` [Cpd 40, 1-(3,4-dimethoxy-phenyl)carbonyl-5′-aminomethyl-spiro[piperidine-4,3′-(2H)-benzo[b]furan]]: the IC50 came to 250 nM.

`Cc1ccccc1Oc1cccc(CC(=O)N2CCC3(CC2)COc2ccc(CN)cc23)c1` [Cpd 208, 1-[3-(2-methyl-phenoxy)-benzyl]carbonyl-5′-aminomethyl-spiro[piperidine-4,3′-(2H)-benzo[b]furan]] gave an IC50 of 12 nM.

`CC(=O)N1CC2(CCN(C(=O)c3ccc(C#Cc4ccccc4)o3)CC2)c2cc(CN)ccc21` [Cpd 339, 1-(5-phenylethynyl-furan-2-yl)carbonyl-1′-methylcarbonyl-5′-aminomethyl-spiro[piperidine-4,3′-(2H)-indole]]: half-maximal inhibition (IC50) required 15 nM.

`CC1(C)CC(=O)c2c(SCc3ccccc3)sc(C(=O)N3CCC4(CC3)COc3ccc(CN)cc34)c2C1` [Cpd 232, 1-(3-benzylthio-4-oxo-6,6-dimethyl-6,7-dihydro-5H-benzo[c]thien-1-yl)carbonyl-5′-aminomethyl-spiro[piperidine-4,3′-(2H)-benzo[b]furan]] came in with an IC50 of 15 nM.

In turn, `COc1ccc(/C=C/C(=O)N2CCC3(CC2)COc2ccc(CN)cc23)cc1` [Cpd 185, (E)-1-(4-methoxy-phenylethenyl)carbonyl-5′-aminomethyl-spiro[piperidine-4,3′-(2H)-benzo[b]furan]] had an IC50 of 1500 nM.

Source of the values: patent publication US8158792B2, “Spiropiperidines for use as tryptase inhibitors” (Janssen Pharmaceutica N.V., priority 2007, dated 2012).
